Some test systems named below: A498 renal; HL-60(TB) leukemia; K-562 leukemia; SF-268 CNS; SK-MEL-2 melanoma; SK-MEL-28 melanoma; SW-620 colon; HOP-92 NSCLC; PC-3 prostate; 786-0 renal.
Common to all, as to assay: growth of human tumour cells (NCI), 48 h

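Step 1: Grow cells in 96-well plates. Step 2: Expose to compound for 48 hours at 5 concentrations. Step 3: Interpolate endpoints linearly; if unreached, use highest concentration. TGI marks complete inhibition of growth.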

The text below walks through data of PubChem BioAssay (NCI).

For the compound `Nc1nc(SCc2ccccc2Cl)c2[nH]cnc2n1`, the TGI in the experiment with A498 renal was 73.1 µM; in the experiment with HL-60(TB) leukemia it was more than 100 µM; with K-562 leukemia, more than 100 µM; with SF-268 CNS, more than 100 µM; in the experiment with SK-MEL-2 melanoma, more than 100 µM; in the experiment on SK-MEL-28 melanoma, more than 100 µM. Also, the TGI in the experiment with SW-620 colon is more than 100 µM.
As for `CCC(=O)OCN(C)c1nc(N(C)COC(=O)CC)nc(N(C)COC(=O)CC)n1`, the TGI with A498 renal is more than 100 µM; in the experiment with HOP-92 NSCLC it was more than 100 µM; in the experiment with K-562 leukemia, more than 100 µM; in the experiment with PC-3 prostate, more than 100 µM; in the experiment with SK-MEL-2 melanoma it was 42 µM; in the experiment on SK-MEL-28 melanoma, more than 100 µM. The TGI with SW-620 colon was more than 100 µM.
As to `Cc1c2ccc3ccccc3c2c[n+]2ccccc12`, the TGI in the experiment with 786-0 renal is 25.8 µM; in the experiment with A498 renal it was more than 94.4 µM; in the experiment on HL-60(TB) leukemia, more than 75.6 µM; in the experiment on HOP-92 NSCLC it was 60.8 µM; with K-562 leukemia, 54.6 µM; in the experiment on PC-3 prostate it was more than 100 µM. Moreover, the TGI was 6.92 µM in the experiment on SF-268 CNS, 31 µM in the experiment with SK-MEL-2 melanoma, 28.7 µM in the experiment on SK-MEL-28 melanoma and 80.5 µM with SW-620 colon.
On to `CCCC(=O)[O-].CCCC(=O)[O-].NCCN.NCCN.[Co+3].[O-][Cl+3]([O-])([O-])[O-]`, for which the TGI in the experiment with 786-0 renal, in the experiment with A498 renal, in the experiment with HOP-92 NSCLC, in the experiment with K-562 leukemia, with SF-268 CNS and in the experiment with SK-MEL-2 melanoma was more than 100 µM each time. In addition, the TGI with SK-MEL-28 melanoma and in the experiment with SW-620 colon was more than 100 µM each time.
Turning to `CCCO[C@@H]1[C@@H](OC(C)=O)[C@@H](OC(C)=O)C(C)(C)/C=C/[C@H](C)C(=O)[C@@]2(OC(C)=O)C[C@@](C)(OC(C)=O)[C@H](OC(C)=O)[C@@H]2[C@H]2OC(=O)CC[C@@]12OC(=O)c1ccccc1`, the TGI with HL-60(TB) leukemia, in the experiment on HOP-92 NSCLC, with K-562 leukemia, in the experiment on PC-3 prostate, with SF-268 CNS and with SK-MEL-2 melanoma was more than 25 µM in each case. In the experiment on SW-620 colon, the TGI was more than 25 µM.
Consider `CNC(C)C(O)c1ccc2oc3cc(=O)c4ccccc4c-3nc2c1` (stereo not given), for which the TGI was 50.6 µM in the experiment with A498 renal; more than 100 µM with HL-60(TB) leukemia; more than 100 µM with HOP-92 NSCLC; more than 100 µM with K-562 leukemia; more than 100 µM in the experiment with PC-3 prostate; more than 100 µM in the experiment with SF-268 CNS. Also, the figures for the TGI with SK-MEL-2 melanoma, with SK-MEL-28 melanoma and with SW-620 colon were 64.2 µM, 27.6 µM and more than 100 µM, respectively.
As for `N[C@H](Cc1ccc2oc3cc(=O)c4ccccc4c-3nc2c1)C(=O)O`, the TGI in the experiment on 786-0 renal was more than 100 µM; in the experiment with A498 renal, more than 100 µM; with HL-60(TB) leukemia, more than 100 µM; in the experiment on HOP-92 NSCLC it was more than 100 µM; in the experiment with K-562 leukemia, 71.2 µM; with SF-268 CNS, more than 100 µM. Further, the TGI in the experiment on SK-MEL-28 melanoma and with SW-620 colon was more than 100 µM each time.
As for `O=C1c2ccccc2OCC12OC21C=CC(Cl)=CC1` (stereo not given), the TGI in the experiment with A498 renal was 55 µM; in the experiment with HL-60(TB) leukemia, 37.3 µM; in the experiment on HOP-92 NSCLC, more than 100 µM; with K-562 leukemia it was more than 100 µM; in the experiment on PC-3 prostate, more than 100 µM; in the experiment on SF-268 CNS, more than 100 µM. The values for the TGI with SK-MEL-2 melanoma, with SK-MEL-28 melanoma and with SW-620 colon were 59.1 µM, 67.4 µM and more than 100 µM, respectively.
Take `N#Cc1cc2c(cc1Cl)Sc1nnc(Nc3ccccc3)n1S2(=O)=O`: the TGI with 786-0 renal turned out to be 8.49 µM; with A498 renal, 20.8 µM; with HL-60(TB) leukemia it was 13.6 µM; in the experiment on HOP-92 NSCLC, 4.74 µM; with K-562 leukemia it was 11.1 µM; in the experiment on PC-3 prostate, 3.89 µM. In addition, the TGI was 10.5 µM in the experiment with SF-268 CNS, 8.26 µM in the experiment with SK-MEL-2 melanoma, 5.4 µM in the experiment on SK-MEL-28 melanoma and 3.13 µM with SW-620 colon.
Take `CCCn1cnc2c(SCc3ccc(Cl)cc3)nc(N)nc21`: the TGI with 786-0 renal was more than 100 µM; in the experiment on A498 renal it was 49.1 µM; in the experiment on HL-60(TB) leukemia, 48.7 µM; with HOP-92 NSCLC, more than 100 µM; with K-562 leukemia, 48.2 µM; with PC-3 prostate it was 57.8 µM. The TGI with SF-268 CNS is more than 100 µM; in the experiment with SK-MEL-2 melanoma, 41.3 µM; in the experiment on SK-MEL-28 melanoma, 83.4 µM; in the experiment with SW-620 colon it was more than 100 µM.
As for `C/C(=N\NC(=S)N1CCCC1)c1nc2ncccc2[nH]1`, the TGI was 21.7 µM with 786-0 renal; 27.1 µM in the experiment on A498 renal; more than 100 µM with HL-60(TB) leukemia; 8.5 µM in the experiment on HOP-92 NSCLC; 37 µM in the experiment on K-562 leukemia; more than 100 µM in the experiment with PC-3 prostate. Also, the TGI in the experiment with SF-268 CNS was more than 100 µM; with SK-MEL-2 melanoma it was 46.8 µM; in the experiment with SK-MEL-28 melanoma it was 28.2 µM; with SW-620 colon it was 64.4 µM.
On to `Cc1ccc(CSC(N)=Nc2ccccc2)cc1C`, for which the TGI in the experiment on 786-0 renal stood at 44.7 µM; in the experiment on A498 renal it was 33.2 µM; in the experiment with HL-60(TB) leukemia it was 62.9 µM; in the experiment on HOP-92 NSCLC it was 45.7 µM; in the experiment with K-562 leukemia it was 61.7 µM; in the experiment with PC-3 prostate, 60.5 µM. For the same compound, the TGI was 36.7 µM with SF-268 CNS, 33.6 µM in the experiment with SK-MEL-2 melanoma, 45.1 µM in the experiment on SK-MEL-28 melanoma and more than 100 µM with SW-620 colon.
